Laboratory results as given in patent US20020192256A1, “Water miscible pesticide containing a synergistic cocktail of plant alkaloids” (priority 2000, published 2002).

Tested on: small green leafhoppers
Assay: Insecticidal activity of pesticides on small green leafhoppers on tea trees (Table IX)
Type: in vivo
Design: 1d after Spray Efficacy (%) / 3d after Spray Efficacy (%) / 7d after Spray Efficacy (%): concentration or dose not given beside the values
Method: Ninety-eight kilograms of this pesticide was mixed with 2 Kg of imidacloprid with low toxicity to mammals. The mixture was tested for its insecticidal efficacy on small green leafhoppers on tea trees and compared with those of 40% dichlorophos emulsion and imidacloprid, a highly toxic pesticide, and the extract of Sophora alopecuroides as described in section 1) under “Extract of alkaloids from plants”.

SMILES	1d after Spray Efficacy (%)	1d after Spray Pests +/− Rate (%)	3d after Spray Efficacy (%)	3d after Spray Pests +/− Rate (%)	7d after Spray Efficacy (%)	7d after Spray Pests +/− Rate (%)
O=[N+]([O-])NC1=NCCN1Cc1ccc(Cl)nc1 [Imidacloprid, imidacloprid]	67.8%	−48.47%	61.3%	−60.3%	60.7%	−60.7%
COP(=O)(OC)OC=C(Cl)Cl [Dichlorphos, dichlorophos]	68.8%	−43.48%	64.43%	−60.87%	60.32%	−60.32%
